Holding throughout (format): cell-based
The test system of one assay is human BM cells. Description: OC differentiation of human BM cells stimulated with 1.25(OH)2 vitamin D3, TRAP staining. Conditions: 1.25(OH)2 vitamin D3, with antagonists vs placebo. Here is the method:
(§1) Human BM cells from healthy donors were obtained from the Hematopoietic Stem Cell Core Facility of Case Western Reserve University. Murine BM cells were isolated from 8- to 12-week-old female mouse femurs and tibias, washed, and collected in 15-mL tubes in α-modified Eagle medium (MEM) containing 10% fetal bovine serum (FBS) that was heat-inactivated to eliminate complement activity. For OC differentiation, 2×10^6 BM cells were cultured in complete α-MEM medium in wells of a 24-well plate together with 1×10^−8M 1.25(OH)2 vitamin D3 (Cayman Chemical) as described before. Cultures were fed every 3 days with fresh media. For IL-6 or C5aR antagonist (C5aRA)/C3aR antagonist (C3aRA) supplementation experiments, 20 ng/mL IL-6 (R&D Systems) or 50 μM of each antagonist or both (C5aRA: JPE-1375; custom synthesized by Anaspec; C3aRA:SB290157; purchased from BMD Chemicals) were included in the medium. For C3a and/or C5a supplementation experiments, 50 ng/mL purified C3a (BD Biosciences) or C5a (Cell Sciences) or both were added daily into WT and C3^−/− BM-cell cultures. To neutralize IL-6 in samples treated with C3a/C5a, 10 ng/mL rat anti-IL-6 mAb (Clone 6B4 IGH 54; eBioscience) were added every 2 days. At day 12, differentiated OCs were identified by conventional tartrate-resistant acid phosphatase (TRAP) staining using a kit (Sigma-Aldrich) and following the protocol provided by the manufacturer. Total numbers of TRAP-positive cells in each well were counted under a microscope, and cells containing 3 or more nuclei were categorized as multinucleated.
To determine whether the above-observed results would apply to humans, we subjected normal human BM cells to OC differentiation conditions with and without the C3aR/C5aR antagonists, then analyzed the conditioned media for the presence of factor B, factor D, and C5, and quantified the resultant TRAP^+ cells.

A further assay has as its system WT BM cells. Description: OC differentiation of WT mouse BM cells stimulated with 1.25(OH)2 vitamin D3, TRAP staining. Conditions: for TRAP-positive multinuclear cells / TRAP-positive mononuclear cells / numbers of resultant OC with exogenous C3a/C5a, result in words: WT BM cells; for TRAP-positive multinuclear cells / TRAP-positive mononuclear cells: 1×10^−8M 1.25(OH)2 vitamin D3, 50 μM of each antagonist, day 12; for TRAP-positive multinuclear cells: placebo 42±9; for TRAP-positive mononuclear cells: placebo 217±25; for OC generation / differentiation, result in words: WT mouse BM cells, antagonist during 1.25(OH)2 vitamin D3 stimulation, vs placebo; for numbers of resultant OC with exogenous C3a/C5a, result in words: 50 ng/mL C3a or C5a or both added daily. Here is the method:
as §1

For a further assay, the system named is C3^−/− BM cells. Description: OC differentiation of C3^−/− mouse BM cells stimulated with 1.25(OH)2 vitamin D3, TRAP staining. Conditions: for numbers of resultant OC with exogenous C3a/C5a, result in words: 50 ng/mL C3a or C5a or both added daily. The method, then:
as §1

The values that follow come from patent US9289467B2, “Compositions and methods for treating bone conditions” (Case Western Reserve University, priority 2011, dated 2016).

“Also recorded” adds a separate entry of the source.

On to `NC(N)=NCCC[C@H](NC(=O)COCC(c1ccccc1)c1ccccc1)C(=O)O` [C3aRA, SB290157], for which the “OC differentiation (TRAP^+ cells), result in words” value (“OC differentiation (TRAP^+ cells)” below) in the assay with human BM cells was “significant decrease in both mononuclear and multi-nuclear TRAP^+ cells”. Moreover, in the assay on WT BM cells, the TRAP-positive multinuclear cells was found to be 29±7 cells; the TRAP-positive mononuclear cells was found to be 156±23 cells; the “OC generation / differentiation, result in words” value (shortened to “OC generation / differentiation”) is given as “significantly inhibited OC generation”.

In the case of “C3a: purified C3a (BD Biosciences), complement activation product, 50 ng/mL”, the “numbers of resultant OC with exogenous C3a/C5a, result in words” value with C3^−/− BM cells (C3^−/− BM cells) and in the assay on WT BM cells was “increased the numbers of resultant OC” throughout.

Consider JPE-1375 [C5aRA], for which the “OC differentiation (TRAP^+ cells)” value in the assay on human BM cells is listed as “decrease in both cell types, but only the mono-nuclear cells were at the level of statistical significance”. In the assay with human BM cells (listed as JPE-1375), the “OC differentiation (TRAP^+ cells)” value is “inhibits mouse and human OC differentiation in vitro”. Moreover, in the assay on WT BM cells, the TRAP-positive multinuclear cells is given as 34±8 cells; the TRAP-positive mononuclear cells is recorded as 176±29 cells; the “OC generation / differentiation” value is “did not reach a statistical significance”. In addition, the “OC generation / differentiation” value in the assay on WT BM cells (listed as JPE-1375) is “inhibits mouse and human OC differentiation in vitro”.

B1: IL-6: exogenous IL-6 (R&D Systems), 20 ng/mL supplemented into BM cell cultures (protein, UniProt P08505 25-211, looked up)
Interleukin-6: FPTSQVRRGDFTEDTTPNRPVYTTSQVGGLITHVLWEIVEMRKELCNGNSDCMNNDDALAENNLKLPEIQRNDGCYQTGYNQEICLLKISSGLLEYHSYLEYMKNNLKDNKKDKARVLQRDTETLIHIFNQEVKDLHKIVLPTPISNALLTDKLESQKEWLRTKTIQFILKSLEEFLKVTLRSTRQT
For B1, the “OC differentiation with IL-6 supplementation, result in words” value in the assay with C3^−/− BM cells (C3^−/− BM cell cultures supplemented with IL-6) is “rescued the C3^−/− phenotype; also recorded: restored their OC differentiation capabilities”. In addition, in the assay with C3^−/− BM cells (C3^−/− BM cells, 20 ng/mL IL-6 daily, 12 days, without IL-6 31±4), the “TRAP-positive cells (multinucleated)” value was found to be 52±9. In the assay on C3^−/− BM cells (C3^−/− BM cells, 20 ng/mL IL-6 daily, 12 days, without IL-6 108±17), the “TRAP-positive cells (mononuclear)” value is given as 249±39. The “Trap^+ Multi-Nucl. Cells/Well” value in the assay with C3^−/− BM cells (Table 2, C3^−/− BM cells + IL-6, C3^−/− without IL-6 31 ± 4) is on record as 52 ± 9 Cells/Well. Further, the “Trap^+ Mono-Nucl. Cells/Well” value in the assay with C3^−/− BM cells (Table 2, C3^−/− BM cells + IL-6, C3^−/− without IL-6 108 ± 17) is listed as 249 ± 39 Cells/Well.

B2: C5a: purified C5a (Cell Sciences), complement activation product, 50 ng/mL (protein, UniProt P06684 679-755, looked up)
C5a anaphylatoxin: NLHLLRQKIEEQAAKYKHSVPKKCCYDGARVNFYETCEERVARVTIGPLCIRAFNECCTIANKIRKESPHKPVQLGR
modifications: C5a anaphylatoxin
On to B2, for which the “numbers of resultant OC with exogenous C3a/C5a, result in words” value with C3^−/− BM cells (C3^−/− BM cells) and in the assay on WT BM cells was “did not appear to have a significant effect” each time.
